Test results reported in patent publication US8247211B2, “Glycopeptide antibiotics” (American Cyanamid Company, priority 2001, dated 2012).
In brackets after ≈: the same amount, converted by molar mass.

How the values were obtained:
Experiment in all cases: In vitro antibacterial evaluation: minimum inhibitory concentration (MIC), broth dilution method
Assay type in all cases: cell-based
Settings in all cases: broth dilution, 18 hours at 35° C.
Enterococcus sp. = test system: Enterococcus sp.
Procedure, shortened: (§1)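 NCCLS M7-A2 broth dilution; Muller-Hinton II […]; 5×10^5 CFU/mL; 64-0.06 μg/mL. MIC = lowest concentration with no growth.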

Staphylococcus sp. = test system: Staphylococcus sp.
Procedure, shortened: as §1

Streptococcus sp. = test system: Streptococcus sp.
Procedure, shortened: as §1

Escherichia coli = test system: Escherichia coli

MIC Enterococcus avium (GC 4558) (Enterococcus sp.; Enterococcus avium (GC 4558)): 8 mg/L (≈ 6.98 µM)
MIC Enterococcus faecalis (ATCC 29212) (Enterococcus sp.; Enterococcus faecalis (ATCC 29212)): 64 mg/L (≈ 55.8 µM)
MIC Enterococcus faecalis (GC 2242) (Enterococcus sp.; Enterococcus faecalis (GC 2242)): 64 mg/L (≈ 55.8 µM)
MIC Enterococcus faecalis (GC 2691) (Enterococcus sp.; Enterococcus faecalis (GC 2691)): 64 mg/L (≈ 55.8 µM)
MIC Enterococcus faecalis (GC 3059) (Enterococcus sp.; Enterococcus faecalis (GC 3059)): 64 mg/L (≈ 55.8 µM)
MIC Enterococcus faecalis (GC 4552) (Enterococcus sp.; Enterococcus faecalis (GC 4552)): 64 mg/L (≈ 55.8 µM)
MIC Enterococcus faecalis (GC 4553) (Enterococcus sp.; Enterococcus faecalis (GC 4553)): 16 mg/L (≈ 14 µM)
MIC Enterococcus faecalis (GC 4554) (Enterococcus sp.; Enterococcus faecalis (GC 4554)): 64 mg/L (≈ 55.8 µM)
MIC Enterococcus faecalis (GC 6189) (Enterococcus sp.; Enterococcus faecalis (GC 6189)): 64 mg/L (≈ 55.8 µM)
MIC Enterococcus faecium (GC 2243) (Enterococcus sp.; Enterococcus faecium (GC 2243)): 16 mg/L (≈ 14 µM)
MIC Enterococcus faecium (GC 4556) (Enterococcus sp.; Enterococcus faecium (GC 4556)): 64 mg/L (≈ 55.8 µM)
MIC Enterococcus faecium (GC 4557) (Enterococcus sp.; Enterococcus faecium (GC 4557)): 4 mg/L (≈ 3.49 µM)
MIC Enterococcus avium (GC 4558) (Enterococcus sp.): 8 mg/L (≈ 6.98 µM)
MIC Enterococcus faecalis (ATCC 29212) (Enterococcus sp.): 64 mg/L (≈ 55.8 µM)
MIC Enterococcus faecalis (GC 2242) (Enterococcus sp.): 64 mg/L (≈ 55.8 µM)
MIC Enterococcus faecalis (GC 2691) (Enterococcus sp.): 64 mg/L (≈ 55.8 µM)
MIC Enterococcus faecalis (GC 3059) (Enterococcus sp.): 64 mg/L (≈ 55.8 µM)
MIC Enterococcus faecalis (GC 4552) (Enterococcus sp.): 64 mg/L (≈ 55.8 µM)
MIC Enterococcus faecalis (GC 4553) (Enterococcus sp.): 16 mg/L (≈ 14 µM)
MIC Enterococcus faecalis (GC 4554) (Enterococcus sp.): 64 mg/L (≈ 55.8 µM)
MIC Enterococcus faecalis (GC 6189) (Enterococcus sp.): 64 mg/L (≈ 55.8 µM)
MIC Enterococcus faecium (GC 2243) (Enterococcus sp.): 16 mg/L (≈ 14 µM)
MIC Enterococcus faecium (GC 4556) (Enterococcus sp.): 64 mg/L (≈ 55.8 µM)
MIC Enterococcus faecium (GC 4557) (Enterococcus sp.): 4 mg/L (≈ 3.49 µM)
MIC Coagulase Negative Staphylococcus (GC 4547) (Staphylococcus sp.): 4 mg/L (≈ 3.49 µM)
MIC Coagulase Negative Staphylococcus (GC 4548) (Staphylococcus sp.): 8 mg/L (≈ 6.98 µM)
MIC Coagulase Negative Staphylococcus (GC 4549) (Staphylococcus sp.): 4 mg/L (≈ 3.49 µM)
MIC Coagulase Negative Staphylococcus (GC 4551) (Staphylococcus sp.): 16 mg/L (≈ 14 µM)
MIC Staphylococcus aureus SMITH (GC 4543) (Staphylococcus sp.): 16 mg/L (≈ 14 µM)
MIC Staphylococcus aureus-SMITH (GC 4543) (Staphylococcus sp.; strain SMITH GC 4543): 16 mg/L (≈ 14 µM)
MIC Streptococcus agalactiae (GC 4564) (Streptococcus sp.; Streptococcus agalactiae (GC 4564)): 16 mg/L (≈ 14 µM)
MIC Streptococcus pneumoniae (ATCC 6301) (Streptococcus sp.; Streptococcus pneumoniae (ATCC 6301)): 16 mg/L (≈ 14 µM)
MIC Streptococcus pneumoniae (GC 1894) (Streptococcus sp.; Streptococcus pneumoniae (GC 1894)): 8 mg/L (≈ 6.98 µM)
MIC Streptococcus pneumoniae (GC 4565) (Streptococcus sp.; Streptococcus pneumoniae (GC 4565)): 32 mg/L (≈ 27.9 µM)
MIC Streptococcus pyogenes (GC 4563) (Streptococcus sp.; Streptococcus pyogenes (GC 4563)): 8 mg/L (≈ 6.98 µM)
MIC Streptococcus agalactiae (GC 4564) (Streptococcus sp.): 16 mg/L (≈ 14 µM)
MIC Streptococcus pneumoniae (ATCC 6301) (Streptococcus sp.): 16 mg/L (≈ 14 µM)
MIC Streptococcus pneumoniae (GC 1894) (Streptococcus sp.): 8 mg/L (≈ 6.98 µM)
MIC Streptococcus pneumoniae (GC 4565) (Streptococcus sp.): 32 mg/L (≈ 27.9 µM)
MIC Streptococcus pyogenes (GC 4563) (Streptococcus sp.): 8 mg/L (≈ 6.98 µM)
MIC Escherichia coli (ATCC 25922) (Escherichia coli): 32 mg/L (≈ 27.9 µM)
MIC Escherichia coli (GC 4559) (Escherichia coli): 32 mg/L (≈ 27.9 µM)
MIC Escherichia coli (GC 4560) (Escherichia coli): 4 mg/L (≈ 3.49 µM)
Structure (SMILES): CC(c1ccccc1)C1NC(=O)CNC(=O)C(CO)NC(=O)C(C(O)C2CNC(=N)N2C2OC(CO)C(O)C(O)C2O)NC(=O)C(C(O)C2CNC(=N)N2)NC(=O)C(Cc2ccc3oc(SCC(=O)c4ccccc4)nc3c2)NC1=O (centres unmarked) [Example 48]
MIC Staphylococcus haemolyticus (GC 4546) (Staphylococcus sp.): 8 mg/L (≈ 6.98 µM)
